Where two headings read alike, the source gives them in different places. Square brackets hold non-standard residues; d marks the D form. Peptide text beside a SMILES is read from it. * marks the point of attachment. hPhe = N[CH](CCc1ccccc1)C(=O)O; Cbz = O=C(OCc1ccccc1)*
Assays:
[1] = tested on: HPAC human pancreatic adenocarcinoma cells; experiment: Proteasome inhibitor-induced apoptosis, ELISA of apoptotic nuclear DNA fragmentation; assay type: cell-based; details: 5 nM, 18 hours
Protocol: (§1) Cultured NCI-H929 human myeloma cells, IM-9 human B-lymphoblasts, HPAC human pancreatic adenocarcinoma cells, and Hs 294T human melanoma cells were exposed to vehicle, 5 nM bortezomib (PS-341), or 50 μM Cbz-LnL-CHO for 18 hours. Apoptosis was evaluated using an enzyme-linked immunosorbent assay that detects apoptotic nuclear DNA fragmentation. Cell death is expressed as the fold-increase in apoptosis over the vehicle control, which was arbitrarily set at 1.0. Referring now to FIG. 2, the effect of PS-341 is shown in the open bar graphs, while Cbz-LnL-CHO (IPSI-001) is in the stippled bar graphs. The mean and standard error of the mean are shown for each condition from four independent experiments.

[2] = tested on: NCI-H929 human myeloma cells; experiment: as above; assay type: cell-based; details: 18 hours
Protocol: as §1

[3] = tested on: Hs 294T human melanoma cells; experiment: as above; assay type: cell-based; details: 5 nM, 18 hours
Protocol: as §1

[4] = tested on: IM-9 human B-lymphoblasts; experiment: as above; assay type: cell-based; details: 18 hours
Protocol: as §1

[5] = tested on: myeloma; details: phase II study that led to FDA approval; cited from earlier work
[6] = biological target: T1, proteasome from pituitary tissue (X/Y/Z isoform, constitutive proteasome), chymotrypsin-like (ChT-L) activity (Bos taurus, UniProt Q32KL2); experiment: Inhibition of ChT-L activity of pituitary proteasome (constitutive proteasome); assay type: biochemical; details: substrate Cbz-GGF-pAB; for IC50: read-out: IC50 instead of Ki (†), Pituitary Proteasome, ChT-L component; for Ki: Dixon plots, without preincubation, read-out: Ki (μM) Pituitary Proteasome, ChT-L component
T1 construct: the proteasome from pituitary tissue, representative of the X/Y/Z isoform; from tissue; host or cells: pituitary
From the text: (§2) To investigate the possibility that inhibitors specific for the immunoproteasome could be identified, the proteasome from pituitary tissue, representative of the X/Y/Z isoform (i.e., the constitutive proteasome), and the proteasome from spleen tissue, representative of the LMP-2/7/10 isoform (i.e., the immunoproteasome), were each purified to homogeneity. A panel of peptidyl-aldehyde substrate-related inhibitors were then screened for their ability to inhibit the chymotrypsin-like (ChT-L) and branched chain amino acid preferring (BrAAP) activities of these two proteasome preparations.
(§3) […] Determinations were carried out at three substrate concentrations and at six different inhibitor concentrations without preincubation of the enzyme with inhibitors. Substrate concentrations were 0.1 to 0.4 mM for the BrAAP activity of the spleen, and 0.5 to 4.0 mM for the ChT-L activity, and 1.0 to 4.0 mM for all others. The substrate for the BrAAP activity was Cbz-GPALG-pAB, and Cbz-GGF-pAB for the ChT-L activity. Data are averages±standard error, with the number of determinations shown in parentheses.
as §3, with “for the […] activity of” for “for the BrAAP activity of”, “in parentheses. † indicates IC50 instead of Ki. NI indicates no inhibition in the tested range.” for “in parentheses.”
as §3, with “parentheses. † indicates IC50 instead of Ki. NI indicates no inhibition in the tested range.” for “parentheses.”

[7] = biological target: T2, proteasome from spleen tissue (LMP-2/7/10 isoform, immunoproteasome), chymotrypsin-like (ChT-L) activity (UniProt Q3T112); experiment: Inhibition of ChT-L activity of spleen proteasome (immunoproteasome); assay type: biochemical
T2 construct: Ki (μM) Spleen Proteasome, ChT-L component; other: substrate Cbz-GGF-pAB, Dixon plots, without preincubation; other: substrate Cbz-GGF-pAB
T2 sequence (Q3T112 1-276): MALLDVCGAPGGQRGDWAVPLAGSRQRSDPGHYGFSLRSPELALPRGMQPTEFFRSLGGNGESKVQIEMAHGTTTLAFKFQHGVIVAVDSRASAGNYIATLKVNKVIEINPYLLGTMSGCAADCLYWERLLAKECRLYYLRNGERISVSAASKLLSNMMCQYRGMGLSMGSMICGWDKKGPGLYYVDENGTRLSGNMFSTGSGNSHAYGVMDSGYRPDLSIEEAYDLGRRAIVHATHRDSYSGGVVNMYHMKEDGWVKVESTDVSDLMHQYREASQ
From the text: as §2, with “preparations. […] The same was true for Cbz-FL-CHO, the peptide aldehyde version of bortezomib.” for “preparations.”
(§4) Dixon plots were used to obtain Ki values. Determinations were carried out at three substrate concentrations and at six different inhibitor concentrations without preincubation of the enzyme with inhibitors. Substrate concentrations were 0.1 to 0.4 mM for the BrAAP activity of the spleen, and 0.5 to 4.0 mM for the ChT-L activity, and 1.0 to 4.0 mM for all others. The substrate for the BrAAP activity was Cbz-GPALG-pAB, and Cbz-GGF-pAB for the ChT-L activity. Data are averages±standard error, with the number of determinations shown in parentheses.
as §4, with “for the […] activity of” for “for the BrAAP activity of”, “in parentheses. † indicates IC50 instead of Ki. NI indicates no inhibition in the tested range.” for “in parentheses.”
as §4, with “parentheses. † indicates IC50 instead of Ki. NI indicates no inhibition in the tested range.” for “parentheses.”

[8] = tested on: proteasome from spleen tissue (LMP-2/7/10 isoform, immunoproteasome), branched chain amino acid preferring (BrAAP) activity; experiment: Inhibition of BrAAP activity of spleen proteasome (immunoproteasome); assay type: biochemical; details: spleen versus pituitary proteasome, in vitro
From the text: as §2, with “preparations. […] The same was true for Cbz-FL-CHO, the peptide aldehyde version of bortezomib.” for “preparations.”
as §4
Dixon plots were used to obtain Ki values. […]

[9] = tested on: proteasome from spleen tissue (LMP-2/7/10 isoform, immunoproteasome), chymotrypsin-like (ChT-L) activity; experiment: Inhibition of ChT-L activity of spleen proteasome (immunoproteasome); assay type: biochemical; details: spleen versus pituitary proteasome, in vitro
From the text: as §2, with “preparations. […] The same was true for Cbz-FL-CHO, the peptide aldehyde version of bortezomib.” for “preparations.”
as §4
as §4, with “for the […] activity of” for “for the BrAAP activity of”, “in parentheses. † indicates IC50 instead of Ki. NI indicates no inhibition in the tested range.” for “in parentheses.”
as §4, with “parentheses. † indicates IC50 instead of Ki. NI indicates no inhibition in the tested range.” for “parentheses.”

[10] = substrate Cbz-GGF-pAB, Dixon plots, without preincubation; read-out: Ki (μM) Spleen Proteasome, ChT-L component
[11] = read-out: Ki (μM) Spleen Proteasome, ChT-L component; substrate Cbz-GGF-pAB, Dixon plots, without preincubation

Row | Compound | IC50 [6] | Ki [6] | Ki [7, 10] | other results
1 | CC(C)C[C@H](NC(=O)[C@H](Cc1ccccc1)NC(=O)c1cnccn1)B(O)O [Bortezomib, reference compound] | – | – | – | induction of apoptosis (fold-increase over the vehicle control) [1]: induces apoptosis roughly equally in all of the cell lines tested; induction of apoptosis (fold-increase over the vehicle control) ([2]; NCI-H929, 5 nM): induces apoptosis roughly equally in all of the cell lines tested; induction of apoptosis (fold-increase over the vehicle control) [3]: induces apoptosis roughly equally in all of the cell lines tested; induction of apoptosis (fold-increase over the vehicle control) ([4]; IM-9, 5 nM): induces apoptosis roughly equally in all of the cell lines tested; patients with myeloma with partial responses or better [5]: 28%
2 | O=CC(Cc1ccccc1)NC(=O)C(Cc1ccccc1)NC(=O)CNC(=O)OCc1ccccc1 (stereo not drawn) [Cbz-GFF-CHO, N-carbobenzyloxy-glycyl-phenylalanyl-phenylalanylal] (Cbz-Gly-Phe-Phe-aldehyde; configuration not given here) | 2.7 µM | – | – | IC50 ([7]; read-out: IC50 instead of Ki (†), Spleen Proteasome, ChT-L component; substrate Cbz-GGF-pAB): 1.03 µM
3 | CC(NC(=O)OCc1ccccc1)C(=O)NC(C=O)Cc1ccccc1 (stereo not drawn) [Cbz-AF-CHO, N-carbobenzyloxy-alanyl-phenylalanylal] | 380 µM | – | – | IC50 ([7]; substrate Cbz-GGF-pAB; read-out: IC50 instead of Ki (†), Spleen Proteasome, ChT-L component): 24 µM
4 | CC(C)CC(C=O)NC(=O)C(Cc1ccccc1)NC(=O)OCc1ccccc1 (stereo not drawn) [Cbz-FL-CHO, reference compound] (Cbz-Phe-Leu-aldehyde; configuration not given here) | – | 5.55 ± 0.47 µM | 2.1 ± 0.29 µM | –
5 | CCCCC(C=O)NC(=O)C(CC(C)C)NC(=O)OCc1ccccc1 (stereo not drawn) [Cbz-LnL-CHO, N-carbobenzyloxy-leucyl-norleucinal] | – | 105 ± 1.3 µM | 1.03 ± 0.17 µM | preference for the LMP-containing BrAAP proteasome activity [8]: greater than 160 fold; induction of apoptosis (fold-increase over the vehicle control) ([2]; NCI-H929, 50 μM): induces significant apoptosis; induction of apoptosis (fold-increase over the vehicle control) ([4]; IM-9, 50 μM): induces significant apoptosis; preference for the LMP-containing ChT-L proteasome activity [9]: greater than 100 fold
6 | CC(NC(=O)C1CCCN1C(=O)CNC(=O)OCc1ccccc1)C(=O)NC(C=O)Cc1ccccc1 (stereo not drawn) [Cbz-GPAF-CHO, N-carbobenzyloxy-glycyl-prolyl-alanyl-phenylalanylal] (Cbz-GPAF-aldehyde; configuration not given here) | – | 460 ± 66 µM | – | Ki [7, 11]: 8.4 ± 0.52 µM
7 | O=CC(Cc1ccccc1)NC(=O)C(Cc1ccccc1)NC(=O)C1CCCN1C(=O)CNC(=O)OCc1ccccc1 (stereo not drawn) [Cbz-GPFF-CHO, N-carbobenzyloxy-glycyl-prolyl-phenylalanyl-phenylalanylal] (Cbz-GPFF-aldehyde; configuration not given here) | – | 58 ± 1.8 µM | – | Ki [7, 11]: 5.6 ± 1.1 µM
8 | O=CC(Cc1ccccc1)NC(=O)C(Cc1ccccc1)NC(=O)OCc1ccccc1 (stereo not drawn) [Cbz-FF-CHO, N-carbobenzyloxy-phenylalanyl-phenylalanylal] (Cbz-Phe-Phe-aldehyde; configuration not given here) | – | 56 ± 4.4 µM | 4 ± 0.27 µM | –
9 | CC(C)CC(NC(=O)OCc1ccccc1)C(=O)NC(C=O)Cc1ccccc1 (stereo not drawn) [Cbz-LF-CHO, N-carbobenzyloxy-leucyl-phenylalanylal] (Cbz-Leu-Phe-aldehyde; configuration not given here) | 154 µM | – | 5.6 ± 0.2 µM | –
10 | CC(C)C[C@@H](C=O)NC(=O)[C@H](CC(C)C)NC(=O)[C@H](CC(C)C)NC(=O)OCc1ccccc1 [Cbz-LLL-CHO, reference compound] (Cbz-Leu-Leu-Leu-aldehyde) | – | 6.9 ± 0.84 µM | 5.1 ± 0.9 µM | –
11 | CC(C)CC(NC(=O)OCc1ccccc1)C(=O)NC(CC(C)C)C(=O)NC(C=O)Cc1ccccc1 (stereo not drawn) [Cbz-LLF-CHO, N-carbobenzyloxy-leucyl-leucyl-phenylalanylal] (Cbz-Leu-Leu-Phe-aldehyde; configuration not given here) | – | 1.6 ± 0.5 µM | – | Ki [7, 11]: 5.97 ± 1.4 µM
12 | CC(C)CC(C=O)NC(=O)C(C)NC(=O)C(CC(C)C)NC(=O)OCc1ccccc1 (stereo not drawn) [Cbz-LAL-CHO, reference compound] (Cbz-Leu-Ala-Leu-aldehyde; configuration not given here) | – | 0.82 ± 0.15 µM | 1.45 ± 1.05 µM | –
13 | O=CC(Cc1ccccc1)NC(=O)C(CCc1ccccc1)NC(=O)OCc1ccccc1 (stereo not drawn) [Cbz-hFF-CHO, N-carbobenzyloxy-homophenylalanyl-phenylalanylal] (Cbz-[hPhe]-Phe-aldehyde; configuration not given here) | 40 µM | – | 2.74 ± 0.33 µM | –
